Series [1] is described as follows: Water solubility (qualitative remark). The series is classed as physicochemical. To be noted: 14b vs. 14a.
The subject of series [2] is EGFP reporter gene silenced by DNA methylation (B2-17 cells). Put plainly: Compound effective assay: derepression of EGFP reporter in B2-17 reporter cells (image-based, titration). The series is classed as cell-based. As to conditions: for Emax: 72 h, read-out: Maximal RGFP% (maximal percentage of EGFP+ cells in the dose-response curve); for Emax / EC50 / Maximal RGFP% (maximal percentage of EGFP+ cells in the dose-response curve): B2-17 cells, 72 h treatment; for EC50: dose-response of EGFP+ cells, read-out: EC50 (relative half maximal effect concentration); for activity of derepressing the EGFP reporter gene silenced by DNA methylation (in words): compared with hit compound LX-3. The text has this: (§1) To identify novel small molecules targeting gene repression, we devised an image-based high-throughput screening system using the engineered HEK 293 F cell (termed as B2-17 cells) as report cell line. A chemical library containing 308,251 small molecules was screened in this system. Purposed for unbiased compound screening, this library had been used in a variety of studies (Sun et al., [2012]; Wang et al., [2013]; Dong et al., [2015]; Li et al., [2016]). Hundred and fifty eight compounds which reactivated reporter genes in more than half of cells were selected as hits. Next, we performed titration experiments for all these hits in the B2-17 cell line. The efficacy of each compound was evaluated by its maximal percentage of EGFP^+ cells in the dose-response curve (maximal RGFP) and relative half maximal effect concentration (EC50). The toxicity of the hits was also tested in parallel, measured by number of viable cells in each treatment. The assay is based on quantitative analysis of ATP, an indicator of metabolically active cells. For each compound, we calculated the relative half maximal growth inhibitory concentration (IC50), based on the abovementioned assay.
Procedure for cell culture and establishment of the reporter cell line were reported in our previously published paper (Li et al., [2018]).
Before plating cells, 384-well plates (ViewPlate, PerkinElmer) were coated with PDL (poly-D-lysine, Sigma). For each well, 1,300 B2-17 cells were plated by using a Matrix Wellmate microplate dispenser (Thermo Scientific). Then, 0.25 μL of compound was added to each well by using a versatile pipetting robot, the Biomek FX workstation (Beckman Coulter), to give a final compound concentration of 5 μM. After treatment for 72 h, the cell nuclei were stained by Hoechst 33342 (Sigma) before imaging.
The cells were imaged with Opera LX (PerkinElmer, three views per well by using 10 x (air) objective lens). Images were analyzed with the Columbus system, the mean percentage of EGFP+ cells (RGFP) was obtained to extrapolate the number of EGFP expressing cells and Hoechst-stained nuclei.
For the titration assay, the positive compounds were diluted in DMSO at concentrations ranging from 0.625 to 4 mM. Then, the B2-17 cells were treated by gradient compound and imaged as described before.
For each compound, a dose-response series was generated by using Origin 6.0 Pro software. The dot plot was fit by a DoseResp curve and then the EC50 was calculated.
A general note: In a reporter assay the amount or activity of a reporter protein is the signal.

Another series deals with HEK 293 F cells. Put plainly: Viability assays (CellTiter-Glo, ATP). The series is classed as cell-based. To be noted: viable cells by ATP quantitation, 3 days incubation, Figure 2 says B2-17 cells, method says HEK 293 F cells, read-out: IC50 (relative half maximal growth inhibitory concentration).
Source text: as §1
HEK 293 F cells were plated in 384-well, flat-bottom, tissue culture dishes (Corning) and treated with compounds, incubated 3 days, and assayed for viability using the CellTiter-Glo Luminescent Cell Viability Assay (Promega) according to the manufacturer's protocol. The […] with an EnSight plate reader (Perkin Elmer). Data were normalized to the untreated control (100% viability). Each treatment was tested in two independent assays, each containing 3 replicates. The titration-viability curves of each compound were also generated by using Origin 6.0 Pro software.

A further series concerns p38 MAPK pathway. On the set-up: method as in Li et al., 2018. To be noted: multiple cell types; ref Li et al., 2018; cited from earlier work.

Where two headings read alike, the source gives them in different places.

For the compound `Cc1cc2c(cc1C)n1nc(-c3nccs3)nc1n2CC(=O)c1ccc(Br)cc1` [14b, 1-(4-bromophenyl)-2-(6,7-dimethyl-2-(thiazol-2-yl)-4H-benzo[4,5]imidazo[1,2-b][1,2,4]triazol-4-yl)ethan-1-one], in series [1], the “water solubility (in words)” value is “significantly increased”. Further, in series [2], the Emax stood at 58%, the EC50 stood at 3.4 µM and the “activity of derepressing the EGFP reporter gene silenced by DNA methylation (in words)” value (shortened to “activity”) is recorded as “comparable with the hit compound LX-3”. The IC50 in the series with HEK 293 F cells (HEK293F, 72 h) came to 2.1 µM.

In the case of `O=C(Cn1c2ccccc2c(=O)c2ccccc21)N/N=C/c1ccc(Sc2nc3ccccc3s2)c([N+](=O)[O-])c1` [LX-4], the “activation of the p38 MAPK pathway” value with p38 MAPK pathway is reported as “selectively activate the p38 MAPK pathway”. In series [2], the Emax was 68% and the EC50 stood at 2 µM. Also, the IC50 in the series with HEK 293 F cells (HEK293F, 72 h) came out at 4.2 µM.

As for `O=C(Cn1c2ccccc2n2nc(-c3cccs3)nc12)c1ccc(Br)cc1` [LX-3, 1-(4-bromophenyl)-2-(2-(thiophen-2-yl)-4H-benzo[4,5]imidazo[1,2-b][1,2,4]triazol-4-yl)ethan-1-one], the “activation of the p38 MAPK pathway” value in the series on p38 MAPK pathway is given as “selectively activate the p38 MAPK pathway”. For the same compound, in series [2], the Emax was determined as 79% and the EC50 turned out to be 2.8 µM. Also, the IC50 in the series on HEK 293 F cells (HEK293F, 72 h) stood at 5.1 µM.

Take `O=C(Cn1c2ccccc2n2nc(-c3cccs3)nc12)c1ccccc1` [7a, 1-phenyl-2-(2-(thiophen-2-yl)-4H-benzo[4,5]imidazo[1,2-b][1,2,4]triazol-4-yl)ethan-1-one]: in series [2], the Emax was 7% and the “activity” value is reported as “lost”. In addition, the IC50 with HEK 293 F cells (HEK293F, 72 h) stood at 1.9 µM.

Consider “(4-bromophenyl) (2-(thiazol-2-yl)-4H-benzo[4,5] imidazo[1,2-b][1,2,4]triazol-4-yl)methanone [31a]”, for which, in series [2], the “Maximal RGFP% (maximal percentage of EGFP+ cells in the dose-response curve)” value is 4.0% and the “activity” value is on record as “disappeared”. Also, the IC50 in the series on HEK 293 F cells came to 7.8 µM.

Regarding `COc1ccc(C(=O)Cn2c3ccccc3n3nc(-c4cccs4)nc23)cc1` [7b, 1-(4-methoxyphenyl)-2-(2-(thiophen-2-yl)-4H-benzo[4,5]imidazo[1,2-b][1,2,4]triazol-4-yl)ethan-1-one], in series [2], the Emax amounted to 23%, the EC50 came out at 6.2 µM and the “activity” value is listed as “decreased to some extent”. Besides, in the series on HEK 293 F cells (HEK293F, 72 h), the IC50 amounted to 3.1 µM.

As to “3-(4-bromophenyl)-1-(2-(thiazol-2-yl)-4H-benzo[4,5] imidazo[1,2-b][1,2,4]triazol-4-yl)propan-1-one [31c]”, in series [2], the “Maximal RGFP% (maximal percentage of EGFP+ cells in the dose-response curve)” value was found to be 9.0% and the “activity” value was “loss of activity”. Moreover, the IC50 in the series with HEK 293 F cells turned out to be 15.9 µM.

Turning to `O=C(Cn1c2ccccc2n2nc(-c3ccccc3)nc12)c1ccc(Br)cc1` [22a, 1-(4-bromophenyl)-2-(2-phenyl-4H-benzo[4,5]imidazo[1,2-b][1,2,4]triazol-4-yl)ethan-1-one], in series [2], the Emax worked out at 6% and the “activity” value was “decreased significantly or even disappeared”. For the same compound, the IC50 in the series with HEK 293 F cells (HEK293F, 72 h) was 4.4 µM.

Take `Cc1ccc(-c2ccc(-c3nc4n(CC(=O)c5ccc(Br)cc5)c5ccccc5n4n3)s2)cc1` [compound 25, 1-(4-bromophenyl)-2-(2-(5-(p-tolyl)thiophen-2-yl)-4H-benzo[4,5]imidazo[1,2-b][1,2,4]triazol-4-yl)ethan-1-one]: in series [2], the Emax worked out at 61%, the EC50 was found to be 29.9 µM and the “activity” value was “significant decrease or disappearance”. Besides, the IC50 in the series with HEK 293 F cells (HEK293F, 72 h) was 10.9 µM.

In the case of `O=C(Cn1c2ccc(Br)cc2n2nc(-c3ccc(Br)s3)nc12)c1ccc(Br)cc1` [17c, 2-(7-bromo-2-(5-bromothiophen-2-yl)-4H-benzo[4,5]imidazo[1,2-b][1,2,4]triazol-4-yl)-1-(4-bromophenyl)ethan-1-one], in series [2], the Emax is 28% and the EC50 came to 21.8 µM. Moreover, in the series on HEK 293 F cells (HEK293F, 72 h), the IC50 was determined as 3.8 µM.

Turning to `O=C(Cn1c2ccccc2n2nc(-c3ccc(Cl)s3)nc12)c1ccc(Br)cc1` [compound 29, 1-(4-bromophenyl)-2-(2-(5-chlorothiophen-2-yl)-4H-benzo[4,5]imidazo[1,2-b][1,2,4]triazol-4-yl)ethan-1-one], in series [2], the Emax was 83%, the EC50 was determined as 8.9 µM and the “activity” value is recorded as “little reduction of potency”. The IC50 with HEK 293 F cells (HEK293F, 72 h) came to 13.6 µM.

In the case of `CCc1ccc(CNc2ccc(CNc3ncn[nH]3)cc2)cc1` [LX-2], in series [2], the Emax was found to be 67% and the EC50 came to 2.2 µM. Also, the IC50 with HEK 293 F cells (HEK293F, 72 h) stood at 7.8 µM.

For `O=C(Cn1c2ccccc2n2nc(-c3nccs3)nc12)c1ccc(Br)cc1` [22c, 1-(4-bromophenyl)-2-(2-(thiazol-2-yl)-4H-benzo[4,5]imidazo[1,2-b][1,2,4]triazol-4-yl)ethan-1-one], in series [2], the Emax came out at 48% and the EC50 was 4.5 µM. Besides, in the series with HEK 293 F cells (HEK293F, 72 h), the IC50 is 5.3 µM.

As to `Cc1cc(NC(=O)CSc2nc3ccc(Br)cc3c3nc4ccccc4n23)no1` [LX-6], in series [2], the Emax amounted to 71% and the EC50 is 4.2 µM. For the same compound, the IC50 with HEK 293 F cells (HEK293F, 72 h) came to 5 µM.

With `O=C(Cn1c2ccccc2n2nc(-c3cccs3)nc12)c1ccc([N+](=O)[O-])cc1` [7c, 1-(4-nitrophenyl)-2-(2-(thiophen-2-yl)-4H-benzo[4,5]imidazo[1,2-b][1,2,4]triazol-4-yl)ethan-1-one], in series [2], the Emax was found to be 41%, the EC50 was 14.9 µM and the “activity” value is “decreased to some extent”. Moreover, in the series with HEK 293 F cells (HEK293F, 72 h), the IC50 was 11.9 µM.

`Cc1n[nH]c(Nc2ccc(/N=N/c3ccccc3)cc2)c1[N+](=O)[O-]` [LX-5]: the “activation of the p38 MAPK pathway” value in the series on p38 MAPK pathway is “selectively activate the p38 MAPK pathway”. Also, in series [2], the Emax was 89% and the EC50 was 4.1 µM. The IC50 with HEK 293 F cells (HEK293F, 72 h) stood at 4.2 µM.

For the compound `O=C(Cn1c2ccccc2n2nc(-c3cccs3)nc12)c1ccc(F)cc1F` [7f, 1-(2,4-difluorophenyl)-2-(2-(thiophen-2-yl)-4H-benzo[4,5]imidazo[1,2-b][1,2,4]triazol-4-yl)ethan-1-one], in series [2], the Emax stood at 16% and the “activity” value is given as “significantly decreased”. The IC50 in the series on HEK 293 F cells (HEK293F, 72 h) is 17.8 µM.

For the compound `O=C(Cn1c2ccccc2n2nc(-c3cccs3)nc12)c1ccncc1` [9d, 1-(pyridin-4-yl)-2-(2-(thiophen-2-yl)-4H-benzo[4,5]imidazo[1,2-b][1,2,4]triazol-4-yl)ethan-1-one], in series [2], the Emax was determined as 35% and the EC50 was 13.6 µM. For the same compound, the IC50 with HEK 293 F cells (HEK293F, 72 h) is 6.5 µM.

Values taken from paper PMC6309140, “Synthesis and Evaluation of a New Type of Small Molecule Epigenetic Modulator Containing Imidazo[1,2-b][1,2,4]triazole Motif” (Frontiers in Chemistry, 2018).
